The record followed here is patent publication US9896441B2 (Lycera Corporation, priority 2014, dated 2018).

In assay [1] the target is T1, Gal4-RORγ-LBD (Homo sapiens, UniProt P51449).
T1 construct: expressed in transfected cells
T1 sequence (P51449 269-508 limits assumed): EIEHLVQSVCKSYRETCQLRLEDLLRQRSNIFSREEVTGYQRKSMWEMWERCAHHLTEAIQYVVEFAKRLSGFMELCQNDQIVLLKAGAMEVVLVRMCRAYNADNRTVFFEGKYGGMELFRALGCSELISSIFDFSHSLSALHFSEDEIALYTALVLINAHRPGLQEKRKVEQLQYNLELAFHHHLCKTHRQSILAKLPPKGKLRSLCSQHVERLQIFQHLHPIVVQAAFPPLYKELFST
Put plainly: Gal4-RORγ Luciferase Reporter Assay in HEK-293T Cells. Type of assay: cell-based. The settings on record: HEK-293 cells, luciferase reporter; for Gal4-RORγ Assay Max Response: maximum response. In a few lines:
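Max Response was taken as the upper plateau of a 4-parameter logistic fit of luciferase signal, normalized to 100 for wells without ursolic acid or compound. Transiently Gal4-RORγ-LBD/Gal4-luc transfected HEK-293 cells carrying […] ursolic acid were incubated with test compounds (0.2% DMSO) overnight at 37 °C and read with One-Glo.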

For assay [2], the target named is T2, RORγ-LBD (Homo sapiens, UniProt P51449).
T2 construct: made in house; host or cells: SF9 cells (baculovirus); used as diluted lysate
T2 sequence (P51449 269-508 limits assumed): T1 sequence (P51449 269-508 limits assumed)
Put plainly: RORγ-Ligand Binding Domain (LBD) TR-FRET Assay.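 As to TR-FRET Assay Max Response: 665/615 nm signal ratio set to 100 without ursolic acid or test compound.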 Type of assay: biochemical. The note with it: for TR-FRET Assay Max Response: maximum response. In a few lines:
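Compounds, diluted in DMSO and then in assay buffer (1% DMSO final), were combined with His-tagged RORγ-LBD lysate at roughly 3 nM final and a 200 nM biotinylated SRC1 LXXLL peptide. Ursolic acid was included at 2 μM final. Coactivator recruitment was detected by TR-FRET.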
Background: TR-FRET usually uses a lanthanide donor and a delayed reading to cut background.

Each structure is given as a SMILES string.

For `C/C(=C\c1ccc2c(c1)N(S(=O)(=O)c1cccc(C(F)(F)F)c1)C[C@H]([C@@H](C)N)O2)c1c(F)cccc1Cl` [Example 100, (R)-1-((R)-6-((E)-2-(2-Chloro-6-fluorophenyl)prop-1-en-1-yl)-4-((3-(trifluoromethyl)phenyl)sulfonyl)-3,4-dihydro-2H-benzo[b][1,4]oxazin-2-yl)ethan-1-amine], the EC50 was 500 to 5000 nM in assay [1] (with ursolic acid) and less than 500 nM in assay [2] (RORγ-LBD TR-FRET).

On to `CCn1cc(S(=O)(=O)N2C[C@H]([C@@H](C)N)Oc3ccc(/C=C(\C)c4c(F)cccc4Cl)cc32)c(Cl)n1` [Example 101, (R)-1-((R)-4-((3-Chloro-1-ethyl-1H-pyrazol-4-yl)sulfonyl)-6-((E)-2-(2-chloro-6-fluorophenyl)prop-1-en-1-yl)-3,4-dihydro-2H-benzo[b][1,4]oxazin-2-yl)ethan-1-amine], for which the concentration giving a half-maximal response (EC50) is more than 10000 nM in assay [1] (with ursolic acid) and less than 500 nM in assay [2] (RORγ-LBD TR-FRET).

Consider `CCn1cc(S(=O)(=O)N2C[C@H]([C@@H](C)NC(C)=O)Oc3ccc(/C=C(\C)c4c(F)cccc4Cl)cc32)c(Cl)n1` [Example 102, N—((R)-1-((R)-4-((3-Chloro-1-ethyl-1H-pyrazol-4-yl)sulfonyl)-6-((E)-2-(2-chloro-6-fluorophenyl)prop-1-en-1-yl)-3,4-dihydro-2H-benzo[b][1,4]oxazin-2-yl)ethyl)acetamide], for which the EC50 in assay [1] (with ursolic acid) and in assay [2] (RORγ-LBD TR-FRET) was less than 500 nM in each case.

In the case of `CC(=O)N[C@H](C)[C@H]1CN(S(=O)(=O)c2cccc(C(F)(F)F)c2)c2cc(/C=C(\C)c3c(F)cccc3Cl)ccc2O1` [Example 103, N—((R)-1-((R)-6-((E)-2-(2-Chloro-6-fluorophenyl)prop-1-en-1-yl)-4-((3-(trifluoromethyl)phenyl)sulfonyl)-3,4-dihydro-2H-benzo[b][1,4]oxazin-2-yl)ethyl)acetamide], the EC50 in assay [1] (with ursolic acid) and in assay [2] (RORγ-LBD TR-FRET) was less than 500 nM each time.

With `CCn1cc(S(=O)(=O)N2C[C@H]([C@@H](C)NS(C)(=O)=O)Oc3ccc(/C=C(\C)c4c(F)cccc4Cl)cc32)c(Cl)n1` [Example 104, N—((R)-1-((R)-4-((3-Chloro-1-ethyl-1H-pyrazol-4-yl)sulfonyl)-6-((E)-2-(2-chloro-6-fluorophenyl)prop-1-en-1-yl)-3,4-dihydro-2H-benzo[b][1,4]oxazin-2-yl)ethyl)methanesulfonamide], the EC50 in assay [1] (in presence of ursolic acid) was more than 10000 nM. Further, in assay [2] (RORγ-LBD TR-FRET assay), the concentration giving a half-maximal response (EC50) is less than 500 nM and the “TR-FRET Assay Max Response” value is on record as “*** (a value in the range of greater than 150 to 200)”.

Regarding `C/C(=C\c1ccc2c(c1)N(S(=O)(=O)c1cccc(C(F)(F)F)c1)C[C@H]([C@@H](C)NS(C)(=O)=O)O2)c1c(F)cccc1Cl` [Example 105, N—((R)-1-((R)-6-((E)-2-(2-Chloro-6-fluorophenyl)prop-1-en-1-yl)-4-((3-(trifluoromethyl)phenyl)sulfonyl)-3,4-dihydro-2H-benzo[b][1,4]oxazin-2-yl)ethyl)methanesulfonamide], in assay [1] (in presence of ursolic acid), the EC50 was less than 500 nM and the “Gal4-RORγ Assay Max Response” value is on record as “** (a value in the range of greater than 90 to 150)”. Also, in assay [2] (RORγ-LBD TR-FRET assay), the EC50 was less than 500 nM and the “TR-FRET Assay Max Response” value is given as “** (a value in the range of greater than 90 to 150)”.

For `C/C(=C\c1ccc2c(c1)N(S(=O)(=O)c1cccc(C(F)(F)F)c1)C[C@H](CCO)O2)c1c(F)cccc1Cl` [Example 106, (S,E)-2-(6-(2-(2-Chloro-6-fluorophenyl)prop-1-en-1-yl)-4-((3-(trifluoromethyl)phenyl)sulfonyl)-3,4-dihydro-2H-benzo[b][1,4]oxazin-2-yl)ethanol], in assay [1] (in presence of ursolic acid), the concentration giving a half-maximal response (EC50) is less than 500 nM and the “Gal4-RORγ Assay Max Response” value is given as “** (a value in the range of greater than 90 to 150)”. Also, in assay [2] (RORγ-LBD TR-FRET assay), the EC50 was less than 500 nM and the “TR-FRET Assay Max Response” value is recorded as “*** (a value in the range of greater than 150 to 200)”.

With `C/C(=C\c1ccc2c(c1)N(S(=O)(=O)c1cccc(C(F)(F)F)c1)C[C@H](CC(=O)O)O2)c1c(F)cccc1Cl` [Example 107, (S,E)-2-(6-(2-(2-Chloro-6-fluorophenyl)prop-1-en-1-yl)-4-((3-(trifluoromethyl)phenyl)sulfonyl)-3,4-dihydro-2H-benzo[b][1,4]oxazin-2-yl)acetic acid], in assay [1] (in presence of ursolic acid), the EC50 was 500 to 5000 nM and the “Gal4-RORγ Assay Max Response” value is “** (a value in the range of greater than 90 to 150)”. In assay [2] (RORγ-LBD TR-FRET assay), the concentration giving a half-maximal response (EC50) was less than 500 nM and the “TR-FRET Assay Max Response” value is listed as “** (a value in the range of greater than 90 to 150)”.

For `COc1cc(S(=O)(=O)N2C[C@H](CNC(C)=O)Oc3c(F)cc(/C=C(\C)c4c(F)cccc4Cl)cc32)ccc1F` [Example 108, (S,E)-N-((6-(2-(2-Chloro-6-fluorophenyl)prop-1-en-1-yl)-8-fluoro-4-((4-fluoro-3-methoxyphenyl)sulfonyl)-3,4-dihydro-2H-benzo[b][1,4]oxazin-2-yl)methyl)acetamide], in assay [1] (in presence of ursolic acid), the EC50 is less than 500 nM and the “Gal4-RORγ Assay Max Response” value is reported as “* (a value in the range of 30 to 90)”. Further, in assay [2] (RORγ-LBD TR-FRET assay), the EC50 was less than 500 nM and the “TR-FRET Assay Max Response” value is given as “** (a value in the range of greater than 90 to 150)”.

For the compound `CCn1cc(S(=O)(=O)N2C[C@H](CNC(C)=O)Oc3c(F)cc(/C=C(\C)c4c(F)cccc4Cl)cc32)c(Cl)n1` [Example 109A, (S,E)-N-((4-((3-chloro-1-ethyl-1H-pyrazol-4-yl)sulfonyl)-6-(2-(2-chloro-6-fluorophenyl)prop-1-en-1-yl)-8-fluoro-3,4-dihydro-2H-benzo[b][1,4]oxazin-2-yl)methyl)acetamide], in assay [1] (in presence of ursolic acid), the concentration giving a half-maximal response (EC50) was less than 500 nM and the “Gal4-RORγ Assay Max Response” value was “* (a value in the range of 30 to 90)”. In assay [2] (RORγ-LBD TR-FRET assay), the half-maximal effective concentration (EC50) is less than 500 nM and the “TR-FRET Assay Max Response” value is listed as “*** (a value in the range of greater than 150 to 200)”.

Turning to `COc1cc(S(=O)(=O)N2C[C@H](CNC(C)=O)Oc3ccc(/C=C(\C)c4c(F)cccc4Cl)cc32)ccc1F` [Example 109B, (S,E)-N-((6-(2-(2-chloro-6-fluorophenyl)prop-1-en-1-yl)-4-((4-fluoro-3-methoxyphenyl)-sulfonyl)-3,4-dihydro-2H-benzo[b][1,4]oxazin-2-yl)methyl)acetamide], in assay [1] (in presence of ursolic acid), the half-maximal effective concentration (EC50) is less than 500 nM and the “Gal4-RORγ Assay Max Response” value is given as “* (a value in the range of 30 to 90)”. For the same compound, in assay [2] (RORγ-LBD TR-FRET assay), the 50% effective concentration (EC50) was less than 500 nM and the “TR-FRET Assay Max Response” value was “** (a value in the range of greater than 90 to 150)”.

As for `CC(=O)NC[C@H]1CN(S(=O)(=O)c2cccc(C(F)(F)F)c2)c2cc(/C=C(\C)c3c(F)cccc3Cl)ccc2O1` [Example 109C, (S,E)-N-((6-(2-(2-chloro-6-fluorophenyl)prop-1-en-1-yl)-4-((3-(trifluoromethyl)phenyl)-sulfonyl)-3,4-dihydro-2H-benzo[b][1,4]oxazin-2-yl)methyl)acetamide], in assay [1] (in presence of ursolic acid), the EC50 was less than 500 nM and the “Gal4-RORγ Assay Max Response” value is “** (a value in the range of greater than 90 to 150)”. In addition, in assay [2] (RORγ-LBD TR-FRET assay), the 50% effective concentration (EC50) is less than 500 nM and the “TR-FRET Assay Max Response” value was “** (a value in the range of greater than 90 to 150)”.

Consider `CCn1cc(S(=O)(=O)N2C[C@H](CNC(C)=O)Oc3ccc(/C=C/c4c(F)cccc4Cl)cc32)c(Cl)n1` [Example 109D, (S,E)-N-((4-((3-chloro-1-ethyl-1H-pyrazol-4-yl)sulfonyl)-6-(2-chloro-6-fluorostyryl)-3,4-dihydro-2H-benzo[b][1,4]oxazin-2-yl)methyl)acetamide], for which, in assay [1] (in presence of ursolic acid), the concentration giving a half-maximal response (EC50) was 500 to 5000 nM and the “Gal4-RORγ Assay Max Response” value is given as “** (a value in the range of greater than 90 to 150)”. In assay [2] (RORγ-LBD TR-FRET assay), the concentration giving a half-maximal response (EC50) is less than 500 nM and the “TR-FRET Assay Max Response” value is “*** (a value in the range of greater than 150 to 200)”.

In the case of `CCn1cc(S(=O)(=O)N2C[C@H](CNC(C)=O)Oc3ccc(/C=C/c4ncccc4Cl)cc32)c(Cl)n1` [Example 109E, (S,E)-N-((4-((3-chloro-1-ethyl-1H-pyrazol-4-yl)sulfonyl)-6-(2-(3-chloropyridin-2-yl)vinyl)-3,4-dihydro-2H-benzo[b][1,4]-oxazin-2-yl)methyl)acetamide], in assay [1] (in presence of ursolic acid), the EC50 lay in the range of 500 to 5000 nM and the “Gal4-RORγ Assay Max Response” value is reported as “** (a value in the range of greater than 90 to 150)”. Moreover, in assay [2] (RORγ-LBD TR-FRET assay), the EC50 is less than 500 nM and the “TR-FRET Assay Max Response” value is “**** (a value greater than 200)”.

On to `CCOc1ncc(C(F)(F)F)cc1S(=O)(=O)N1C[C@H](CNC(=O)CCC(=O)O)Oc2ccc(/C=C/c3c(F)cccc3Cl)cc21` [Example 109F, (S,E)-4-(((6-(2-chloro-6-fluorostyryl)-4-((2-ethoxy-5-(trifluoro-methyl)pyridin-3-yl)sulfonyl)-3,4-dihydro-2H-benzo[b][1,4]oxazin-2-yl)methyl)amino)-4-oxobutanoic acid], for which, in assay [1] (in presence of ursolic acid), the half-maximal effective concentration (EC50) was 500 to 5000 nM and the “Gal4-RORγ Assay Max Response” value was “** (a value in the range of greater than 90 to 150)”. In addition, in assay [2] (RORγ-LBD TR-FRET assay), the EC50 is less than 500 nM and the “TR-FRET Assay Max Response” value is “*** (a value in the range of greater than 150 to 200)”.

Usually EC50 stands for the concentration giving half of the maximal effect.
